Legend:
NTSR1 (NTR1) = target: T1, NTSR1 (NTR1) (Homo sapiens, UniProt P30989); assay: NTR1 β-Arrestin dose response (DiscoveRx PathHunter, CHO-K1); format: cell-based
T1 construct: host or cells: CHO-K1
Method: The NTR1 β-Arrestin assays were performed using a PathHunter™ eXpress kit (93-0446E2) which contained the NTSR1 (NTR1) CHO cell line, OCC2 media (30-409), as well as the PathHunter Detection Reagents (93-0446E2). The kit was obtained from DiscoveRx (Fremont, Calif.). The assay employed the same neurotensin 1 peptide as a control as was used in the NTR1 primary assay. The assay was run in 1536-well, white, solid-bottom tissue culture plates (3727) from Corning.
On day one of the assay, 5 uL of a cell suspension containing 120,000 NTSR1 (NTR1) CHO-K1 cells per mL in OCC2 media is added to each well of a 1536-well assay plate using a Multidrop Combi. The assay plates are then incubated for 48 hours at 37° C., under 5% CO2. Following the two day incubation, a volume of 20, 10, and 5 nL of 10 and 1.2 mM test compounds in DMSO were transferred from source wells to test compound wells in assay plates with a LabCyte Echo to achieve final assay concentrations ranging from 33 to 1.03 uM for each test sample. Test compound wells and control wells were backfilled with DMSO to achieve a final volume of DMSO of 20 nL or a final assay concentration of 0.33%. […] Plates are again centrifuged as previously described then incubated at room temperature for 1 hour before being read on the PerkinElmer using a luminescent protocol.

[1] = tested on: GPCR binding assay panel (˜40 receptors); assay: PDSP GPCR binding assay panel
Excerpt: However, these activities in in vitro binding assays may not translate into functional modulation of these receptors.

[2] = Plasma protein binding, Rapid Equilibrium Device, human plasma; format: in vitro ADME; conditions: human plasma (EDTA), diluted 1:1 with PBS, pH 7.4, Human, read-out: Plasma Protein Binding (% Bound) (converted)
Method: (§1) The extent of compound bound to plasma proteins was measured using the Rapid Equilibrium Device (Pierce Thermo Scientific, Rockford Ill.). The base plate was rinsed with […] followed by 2× washes with ultrapure water and allowed to dry. Human and mouse plasma (BioChemed Services, Winchester Va.) collected in EDTA was allowed to thaw at room temperature and then warmed to 37° C., and diluted 1:1 (v:v) with 1×PBS, pH 7.4, prior to the assay. The compound (1.0 and 10.0 μM final) was added to the chamber containing 300 μl plasma:PBS. Next, 500 μl of dialysis buffer (1×PBS, pH7.4) was added to the buffer chambers of the inserts. The chambers were covered with sealing tape and incubated at 37° C. on an orbital shaker at 300× rpm for 4 hours. After the incubation time, a sample volume of 50 μl from the buffer side, representing the free concentration, and an equivalent sample volume from the plasma side, representing the total concentration, i.e. the free concentration+the concentration of drug bound to protein, were transferred from the dialysis cells to a 96 deep well plate for LCMS analysis. Results reported are the mean of each reaction duplicate, normalized to the internal standard, and expressed as a percent compound bound after the incubation time. The amount of compound in the supernatant was determined by LC/MS/MS and the percent of free and bound compounds were calculated with the following formulas: Percent of free parent compound=(amount of compound in receiver chamber/amount of compound in donor chamber)*100.

plasma proteins = assay: as above; format: in vitro ADME; conditions: species not stated
Method: as §1

[3] = Brain levels in mouse after ip dosing; format: in vivo

T1 sequence (P30989 whole entry): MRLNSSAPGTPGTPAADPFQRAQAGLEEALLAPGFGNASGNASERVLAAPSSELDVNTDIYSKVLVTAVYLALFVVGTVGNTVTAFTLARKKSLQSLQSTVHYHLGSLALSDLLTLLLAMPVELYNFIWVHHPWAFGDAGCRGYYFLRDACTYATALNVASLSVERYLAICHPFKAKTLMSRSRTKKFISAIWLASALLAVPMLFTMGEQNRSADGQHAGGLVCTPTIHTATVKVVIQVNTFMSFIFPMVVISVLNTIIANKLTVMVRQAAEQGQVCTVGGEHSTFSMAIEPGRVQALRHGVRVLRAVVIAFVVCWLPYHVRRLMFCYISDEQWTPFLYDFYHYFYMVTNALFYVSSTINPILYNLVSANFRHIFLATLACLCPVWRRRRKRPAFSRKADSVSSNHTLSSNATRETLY

COc1cc2nc(C3CC3)nc(N3CCN(c4ccccc4OC)CC3)c2cc1OC [Compound 315, 2-cyclopropyl-6,7-dimethoxy-4-(4-(2-methoxyphenyl)piperazin-1-yl)quinazoline]
EC50 (NTSR1 (NTR1)): 3.41 µM
promiscuity in GPCR binding assay panel ([1]; at 10 μM, ˜40 receptors tested): moderately promiscuous
Ki ([1]; on 7 receptors, read-out: Kis in GPCR binding assay panel): < 10 µM
fraction unbound at 4 h, 1 μM ([2]; 1 μM): 0.0055
fraction unbound at 4 h, 10 μM ([2]; 10 μM): 0.0078
plasma protein binding (plasma proteins): highly plasma protein bound
brain/plasma ([3]; 1 hr after 10 mg/kg ip dose): 1.3
brain/plasma ([3]; 1 hr after 30 mg/kg ip dose): 1.6

Source: patent US9868707B2, “Small molecule agonists of neurotensin receptor 1” (SANFORD-BURNHAM MEDICAL RESEARCH INSTITUTE, priority 2012, dated 2018)
